Test results taken from patent publication US6326380A, “Thrombin receptor antagonists” (Schering Corporation, priority 2000, dated 2001).
Like-named read-outs stand apart in the source and are kept apart here.

Key:
Thrombin receptor = molecular target: T1, Thrombin receptor (Homo sapiens, UniProt P25116); test: In vitro Thrombin Receptor Antagonist Assay ([3H]haTRAP radioligand binding, platelet membranes); details: [3H]haTRAP 10 nM, read-out: IC50 (concentration at which a 50% inhibition of thrombin receptor was observed)
T1 construct: Platelet membranes were prepared using a modification of the method of Natarajan et al; tissue North Jersey Blood Center (East Orange, N.J.); host or cells: platelets (platelet concentrates), membranes
T1 sequence (P25116 22-425): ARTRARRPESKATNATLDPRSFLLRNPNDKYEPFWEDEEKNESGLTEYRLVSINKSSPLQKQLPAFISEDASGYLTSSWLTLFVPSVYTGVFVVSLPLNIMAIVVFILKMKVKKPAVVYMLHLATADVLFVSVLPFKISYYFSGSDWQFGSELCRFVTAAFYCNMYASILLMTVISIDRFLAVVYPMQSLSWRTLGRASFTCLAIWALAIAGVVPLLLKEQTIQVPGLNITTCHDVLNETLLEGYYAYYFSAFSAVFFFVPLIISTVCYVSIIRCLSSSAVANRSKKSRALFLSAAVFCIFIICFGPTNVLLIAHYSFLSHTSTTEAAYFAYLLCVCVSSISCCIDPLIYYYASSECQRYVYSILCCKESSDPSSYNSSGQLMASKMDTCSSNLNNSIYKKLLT
Method: In Vitro Testing Procedure for Thrombin Receptor Antagonists:
Preparation of [^3 H]haTRAP
The vessel was attached to the tritium line, frozen in liquid nitrogen and evacuated. […] At the completion of the reaction, the excess tritium was removed and the reacted peptide solution was diluted with DMF (0.5 ml) and filtered to remove the catalyst. The collected DMF solution of the crude peptide was diluted with water and freeze dried to remove the labile tritium. The solid peptide was redissolved in water and the freeze drying process repeated. The tritiated peptide ([^3 H]haTRAP) was dissolved in 0.5 ml of 0.1% aqueous TFA and purified by HPLC using the following conditions: column, Vydac C18, 25 cm×9.4 mm I.D.; mobile phase, (A) 0.1% TFA in water, (B) 0.1% TFA in CH3 CN; gradient, (A/B) from 100/0 to 40/60 over 30 min; flow rate, 5 ml/min; detection, UV at 215 nm.
Preparation of platelet membranes
All steps were carried out at 4° C. under approved biohazard safety conditions. Platelets were centrifuged at 100×g for 20 minutes at 4° C. to remove red cells. The supernatants were decanted and centrifuged at 3000×g for 15 minutes to pellet platelets. Platelets were resuspended in 10 mM Tris-HCl, pH 7.5,150 mM NaCl, 5 mM EDTA, to a total volume of 200 ml and centrifuged at 4400×g for 10 minutes. This step was repeated two additional times. Platelets were resuspended in 5 mM Tris-HCl, pH 7.5, 5 mM EDTA to a final volume of approximately 30 ml and were homogenized with 20 strokes in a Dounce homogenizer. Membranes were pelleted at 41,000×g, resuspended in 40-50 ml 20 mM Tris-HCl, pH 7.5,1 mM EDTA, 0.1 mM dithiothreitol, and 10 ml aliquots were frozen in liquid N2 and stored at -80° C. To complete membrane preparation, aliquots were thawed, pooled, and homogenized with 5 strokes of a Dounce homogenizer. Membranes were pelleted and washed 3 times in 10 mM triethanolamine-HCl, pH 7.4, 5 mM EDTA, and resuspended in 20-25 ml 50 mM Tris-HCl, pH 7.5, 10 mM MgCl2, 1 mM EGTA, and 1% DMSO. Aliquots of membranes were frozen in liquid N2 and stored at -80° C.
High Throughput Thrombin Receptor Radioligand Binding Assay
Stock solutions (10 mM in 100% DMSO) of test compounds were further diluted in 100% DMSO. Unless otherwise indicated, 10 μl of diluted compound solutions and 90 μl of radioligand (a final concentration of 10 nM in 5% DMSO) were added to each well, and the reaction was started by the addition of 100 μl of membranes (40 μg protein/well). […] Compounds were tested at three concentrations (0.1, 1 and 10 μM). The plates were covered and vortex-mixed gently on a Lab-Line Titer Plate Shaker for 1 hour at room temperature. Packard UniFilter GF/C filter plates were soaked for at least 1 hour in 0.1% polyethyleneimine. The incubated membranes were harvested using a Packard FilterMate Universal Harvester and were rapidly washed four times with 300 μl ice cold 50 mM Tris-HCl, pH 7.5, 10 mM MgCl2, 1 mM EGTA. MicroScint 20 scintillation cocktail (25 μl) was added to each well, and the plates were counted in a Packard TopCount Microplate Scintillation Counter. The specific binding was defined as the total binding minus the nonspecific binding observed in the presence of excess (50 μM) unlabeled haTRAP. The % inhibition by a compound of [^3 H]haTRAP binding to thrombin receptors was calculated from the following relationship: […]
A(pF-F)R(ChA)(hR)Y--NH2 and A(pF-F)R(ChA)(hR)(I2 -Y)--NH2, were custom synthesized by AnaSpec Inc. (San Jose, Calif.). […] The gas was subsequently loaded and stored on an IN/US Systems Inc. Trisorber.

[1] = system: platelet aggregation (platelets, haTRAP or thrombin); test: In vitro Platelet Aggregation Inhibition (PAI); assay type: cell-based; details: Homo sapiens, read-out: In vitro PAI IC50
Method: In vitro Platelet Aggregation Procedure:
Blood was obtained from healthy human subjects who were aspirin free for at least 7 days by venipuncture using ACD as anticoagulant. Platelet rich plasma was prepared by centrifugation at 100×g for 15 minutes at 15 deg C. Platelets were pelleted at 3000×g and washed twice in buffered saline containing 1 mM EGTA and 20 μg/ml apyrase to inhibit aggregation. Aggregation was performed at room temperature in buffered saline supplemented with 0.2 mg/ml human fibrinogen. Test compound and platelets were preincubated in 96-well flat-bottom plates for 60 minutes. Aggregation was initiated by adding 0.3 μM haTRAP or 0.1 U/ml thrombin and rapidly vortexing the mixture using a Lab Line Titer Plate Shaker (speed 7). Percent aggregation was monitored as increasing light transmittance at 405 nm in a Spectromax Plate Reader.

[2] = system: platelet aggregation (Whole Blood, haTRAP); test: Ex-vivo Platelet Aggregation In Cynomolgus Whole Blood; design: species or system cynomolgus monkey
Method: Protocol For Ex-Vivo Platelet Aggregation In Cynomolgus Whole Blood Drug administration and blood collection:
Conscious chaired cynomolgus monkeys are allowed to equilibrate for 30 min. A needle catheter is inserted into a brachial vein for infusion of test drugs. Another needle catheter is inserted into the other brachial or saphenous vein and used for blood sampling. In those experiments where the compound is administered orally only one catheter is used. A baseline blood sample (1-2 ml) is collected in vacutainer tubes containing a thrombin inhibitor CVS 2139 (100 μg/0.1 ml saline) as an anticoaculant. The drug is then infused intravenously over a period of 30 min. Blood samples (1 ml) are collected at 5, 10, 20, 30 min during and 30, 60, 90 min after termination of the drug infusion. In PO experiments the animals are dosed with the drug using a gavage cannula. Blood samples are collected at 0, 30, 60, 90, 120, 180, 240, 300, 360 min after dosing. […]
A 0.5 ml blood sample is added to 0.5 ml of saline and warmed to 37° C. in a Chronolog whole blood aggregometer. […] The agonist (haTRAP) is added by an adjustable volume pipette (5-25 μl) and the aggregation curve is recorded for 10 minutes. Maximum aggregation in 6 minutes following agonist is the value recorded.

[3] = 0.3 μM haTRAP or 0.1 U/ml thrombin, 60 min preincubation

| Compound | IC50 (Thrombin receptor) | other results |
| --- | --- | --- |
| C[C@H]1OC(=O)[C@@H]2C[C@@H]3CCCC[C@H]3[C@H](/C=C/c3ccc(-c4cccc5c4OCO5)cn3)[C@H]12 [Example 1DR] |  | IC50 [1, 3]: 0.1 µM |
| Cc1cccc(/C=C/[C@H]2[C@H]3[C@H](C)OC(=O)[C@H]3C=C3CCCC[C@@H]32)n1 [Example 2E] | 0.35 µM |  |
| O=C1OCC2C1Cc1ccccc1C2C=Cc1ccc(-c2cccc(C(F)(F)F)c2)cn1 (stereo not shown) [Example 3K] | 0.01 µM |  |
| C[C@H]1OC(=O)[C@@H]2C[C@@H]3CCCC[C@H]3[C@H](/C=C/c3ccc(-c4cccc(C(F)(F)F)c4)cn3)[C@H]12 [Example 4, (+)-(3R,3aS,4S,4aR,8aS,9aR)-Decahydro-4-[(E)-2-[5-[3-(trifluoromethyl)phenyl]-2-pyridinyl]ethenyl]-3-Methylnaphtho-[2,3-c]furan-1(3H)-one] |  | Ex-vivo C. Monkey Whole Blood PAI ([2]; 3 mpk, oral in betahydroxypropylcyclodextrin as cosolvent): 100%; IC50 [1]: 0.067 µM |
| CNC(=O)C1Cc2ccccc2C(C=Cc2ccc(-c3cccc(C(F)(F)F)c3)cn2)C1CO (stereo not shown) [Example 7] | 1.14 µM |  |
| CCc1cccc(/C=C/[C@H]2[C@@H]3CCCC[C@H]3C[C@H]3C(=O)O[C@H](C)[C@@H]23)n1 [Example 8, (+)-(3R,3aS,4S,4aR,8aS,9aR)-Decahydro-4-[(E)-2-(6-ethyl-2-pyridinyl)ethenyl]-3-methylnaphtho[2,3-c]furan-1(3H)-one] |  | Ex-vivo C. Monkey Whole Blood PAI ([2]; 10 mpk, i.v. infusion over 30 min. in 5% dextrose): 100%; IC50 [1]: 0.3 µM |

Further lines, with some results ahead:

| IC50 (Thrombin receptor) | Compound | other results |
| --- | --- | --- |
| 1.6 µM | Cc1cc(C)nc(/C=C/[C@@H]2[C@H]3CCCC[C@@H]3C[C@@H]3C(=O)O[C@@H](C)[C@H]23)c1 [Example 1A] |  |
| 0.006 µM | C[C@H]1OC(=O)[C@@H]2C[C@@H]3CCCC[C@H]3[C@H](/C=C/c3ccc4cc(O)ccc4n3)[C@H]12 [Example 1BN] | IC50 [1, 3]: 0.1 to 0.3 µM |
| 0.014 µM | Cc1ccccc1-c1ccc(/C=C/[C@H]2[C@@H]3CCCC[C@H]3C[C@H]3C(=O)O[C@H](C)[C@@H]23)nc1 [Example 1DK] |  |
| 0.004 µM | C[C@H]1OC(=O)[C@@H]2C[C@@H]3CCCC[C@H]3[C@H](/C=C/c3ccc(-c4cc(C(F)(F)F)cc(C(F)(F)F)c4)cn3)[C@H]12 [Example 1ES] |  |
